In one assay the target is T1, 5-HT4 receptor (Cavia porcellus, UniProt O70528).
T1 construct: striatum was isolated which was cryopreserved at −80° C. until use; from tissue; host or cells: guinea pig (Slc-Hartley) striatum membranes
Put plainly: Test Example 1: Serotonin 4 (5-HT4) receptor binding assay, [3H]-GR113808, guinea pig striatum membranes (Table 96). The settings on record: Guinea pig 5-HT4 receptor binding assay, [3H]-GR113808, striatum membranes; mean value of each group.

Assay [1] has as its system scopolamine and MK801-induced cognitive impairment. The experiment in a line: Example 5: Y-maze test, scopolamine and MK801-induced deficits, co-administration with donepezil (Table 102). The class given is in vivo, ddY mouse. An excerpt:
Thus, scopolamine-induced cognitive impairment model, one of the AD-like model, has been used to predict pharmacodynamic signals of putative procognitive compounds, utilizing the acetylcholinesterase inhibitor donepezil for illustration (See, Citations 1 and 2). The present inventors investigated the effect of each compound on reversal of scopolamine-induced deficits in performance of Y-maze test in mice, and they also investigated adjunctive effect of compounds with donepezil on reversal of deficits induced by scopolamine and MK801 in mice.
Used animal: ddY mouse (SLC)
In the experiments, the mice were grouped in the same way using Stat Preclinica (Version 1.03295; Takumi Information Technology Inc.). The selected mice were divided into 5 to 7 groups of 7 to 12 mice using the “completely randomization design by the single variable” program (Analytical program version 1.0.7), with body weight on the testing day. After grouping, p values for Bartlett's test and ANOVA across all groups were greater than 0.2, indicating no significant difference in this parameter among the groups.
The required amount of each compound was weighed and put into a glass homogenizer. The required amount of 0.5% MC (methyl cellulose) solution was added, and each compound was suspended to give a 10 mg/kg dosing suspension.
The required amount of donepezil was weighed and put into a glass homogenizer. The required amount of 0.5% MC solution was added, and donepezil was suspended to give a suspension at concentration of 1 mg/mL (10 mg/kg dosing suspension).
The required amount of scopolamine and MK801 were weighed, and saline was added to it to give 0.3 mg/mL and 0.015 mg/mL solution, respectively.
90 Min before the test, the mice were orally administered each compound, donepezil, and vehicle (0.5% methyl cellulose, 10 mL/kg). After 60 min, memory impairment was induced by administering scopolamine (0.6 mg/kg, s.c.) with (co-administration) or without (mono-administration) MK801 (0.03 mg/kg, s.c.). The control group received saline (2 mL/kg, s.c.) rather than scopolamine and MK801.
The Y-maze used herein is a three-arm maze with equal angles between all arms. The mazefloor and walls were constructed from black acrylic resin. The mice were initially placed within one arm, and the sequence and number of arm entries were recorded manually for each mouse over an 8-min period.
Data were processed and analyzed with Microsoft® Office Excel 2003. The alternation behavior was defined as entries into all three arms on consecutive occasions. The percent alternation behavior in each animal was calculated using the following formula, and rounded to one decimal place.
Alternation behavior(%)=[actual alternation/(total arm entries−2)]×100
Restoration ratio of alternation behavior (%) in each animal was calculated using the following formula, and rounded to one decimal place.
Restoration ratio of alternation behavior in each animal (%)=y Alternation behavior in each animal (%)=x Mean of alternation behavior in vehicle-treated group (group No. 1) (%)=A Mean of alternation behavior in scopolamine-treated group (group No. 2) (%)=B
Data were expressed as the mean of the percent alternation behavior, the number of total arm entries and the restoration ratio of alternation behavior.
Values of Y-maze tests are expressed as mean of alternation behavior (n=7−12).
Alternation behaviors in the scopolamine-treated groups were compared to those in the control groups using Wilcoxon rank sum test (Stat preclinical; Version 1.03295; Takumi Information Technology Inc.) with a two-sided significance level of 0.05.
Restoration of alternation behavior was analyzed using Stat Preclinica. Alternation behaviors in the Donepezil (10 mg/kg, p.o.)-treated group were compared to those in the co-administrated groups of test compounds with donepezil (10 mg/kg, p.o.) using non-parametric Dunnett multiple comparison test (Analytical program version 1.0.2) with a two-sided significance level of 0.05.

Where [2] appears, read: compound 0.1 mg/kg, p.o. co-administered with Donepezil 10 mg/kg, p.o.

Marks after values point to notes of the source that are not given here.

T1 sequence (O70528 whole entry): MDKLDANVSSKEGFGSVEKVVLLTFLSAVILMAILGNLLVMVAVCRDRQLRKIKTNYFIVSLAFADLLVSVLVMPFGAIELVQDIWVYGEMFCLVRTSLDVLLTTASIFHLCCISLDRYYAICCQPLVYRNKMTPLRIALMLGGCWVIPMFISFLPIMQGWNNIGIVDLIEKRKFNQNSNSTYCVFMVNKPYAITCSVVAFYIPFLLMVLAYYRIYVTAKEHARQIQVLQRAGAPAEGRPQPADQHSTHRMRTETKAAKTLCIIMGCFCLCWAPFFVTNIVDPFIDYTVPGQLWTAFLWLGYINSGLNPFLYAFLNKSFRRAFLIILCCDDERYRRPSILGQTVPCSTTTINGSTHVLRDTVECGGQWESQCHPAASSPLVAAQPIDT

In the case of `CC(=O)N1CCC(N2CCC(c3nc(-n4nc(C(C)C)c5cccc(F)c54)no3)CC2)CC1.Cl` [Example 232, 1-(4-{3-[7-fluoro-3-(propan-2-yl)-1H-indazol-1-yl]-1,2,4-oxadiazol-5-yl}-1,4′-bipiperidin-1′-yl)ethanone hydrochloride], on 5-HT4 receptor, the IC50 was < 20 nM. Besides, the “Alternation behavior (%)” value in assay [1] (compound 0.03 mg/kg, p.o. alone) is recorded as 46.7%; in assay [1] (compound 0.03 mg/kg, p.o. co-administered with Donepezil 10 mg/kg, p.o.) it was 48.5%; in assay [1] (compound 0.1 mg/kg, p.o. alone) it was 48.0^# %; in assay [1] (setting [2]), 62.4^$ %.
Consider `CC(C)c1nn(-c2noc(C3CCN(C4CCN(C(=O)CO)CC4)CC3)n2)c2c(F)cccc12` [Example 242, 1-(4-{3-[7-fluoro-3-(propan-2-yl)-1H-indazol-1-yl]-1,2,4-oxadiazol-5-yl}-1,4′-bipiperidin-1′-yl)-2-hydroxyethanone], for which the IC50 on 5-HT4 receptor is < 20 nM. In addition, the “Alternation behavior (%)” value in assay [1] (compound 0.1 mg/kg, p.o. alone) is recorded as 51.2^# %; in assay [1] (setting [2]), 58.6^$ %; in assay [1] (compound 0.3 mg/kg, p.o. alone), 57.4^# %; in assay [1] (compound 0.3 mg/kg, p.o. co-administered with Donepezil 10 mg/kg, p.o.) it was 62.5^$ %.

The term IC50 denotes the point on the concentration scale where inhibition reaches its midpoint. Low values mean greater potency, high ones weaker potency.
